Results reported in US20240409585A1, “MACROCYCLIC IMMUNOMODULATORS” (priority 2021, published 2024).
Numbered stars: 1 amine (or outer) side, 2 acyl side, 3 side chain; on linkers, the order of the positions; unused ones are H or OH. Bridge positions count the residues as written; N and C are the ends. Square brackets hold non-standard residues; d marks the D form. Peptide text beside a SMILES is read from it. * marks the point of attachment. Bip(4'-COOH) = N[C@@H](Cc1ccc(-c2ccc(C(=O)O)cc2)cc1)C(=O)O; Bip(4'-NHAc) = CC(=O)Nc1ccc(-c2ccc(C[C@H](N)C(=O)O)cc2)cc1; X17 = Nc1ccc(-c2cccc(C[C@H](N[*:1])C(=O)[*:2])c2)cn1; Phe(3-CF3) = N[C@@H](Cc1cccc(C(F)(F)F)c1)C(=O)O; Ala(morpholin-4-yl) = N[C@@H](CN1CCOCC1)C(=O)O; Phe(4-COOH) = N[C@@H](Cc1ccc(C(=O)O)cc1)C(=O)O; Bip = N[C@@H](Cc1ccc(-c2ccccc2)cc1)C(=O)O; Abu(3R-NH2) = C[C@@H](N)[C@H](N)C(=O)O; Phe(2-Cl) = N[C@@H](Cc1ccccc1Cl)C(=O)O; Phe(3-Me) = Cc1cccc(C[C@H](N)C(=O)O)c1; Val(3-OH) = CC(C)(O)[C@H](N)C(=O)O; hArg = N=C(N)NCCCC[C@H](N)C(=O)O; hPhe = N[C@@H](CCc1ccccc1)C(=O)O; Nva(5-OH) = N[C@@H](CCCO)C(=O)O; Cha = N[C@@H](CC1CCCCC1)C(=O)O; Carboxymethyl = O=C(O)C*; NMeA = CN[C@@H](C)C(=O)O; Nle = CCCC[C@H](N)C(=O)O; Orn = NCCC[C@H](N)C(=O)O; Dab = NCC[C@H](N)C(=O)O

These molecules were tested against T1, Alexa fluor-647 labeled human PD-L1-Ig binding to Jurkat cell line over-expressing human PD-1 (Homo sapiens, UniProt Q15116) (assay: Jurkat-PD-1 Cell Binding High-Content Screening Assay (CBA): Method 3 (Alexa fluor-647 labeled PD-L1-Ig)). Details: Jurkat-PD-1 cells, Alexa fluor-647 labeled PD-L1-Ig 177 nM; head μM; read-out: CBA Method 3 μM.
T1 construct: expressed in transfected cells; host or cells: Jurkat
How it was run: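 Jurkat cells over-expressing human PD-1 in RPMI/10% FCS were preincubated 2 h at 37 °C with compound, then exposed 1 h to Alexa fluor-647 labeled human PD-L1-Ig (177 nM final). Cells fixed in 4% paraformaldehyde with Hoechst 33342 and binding quantified by high-content imaging.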

T1 sequence (Q15116 25-288): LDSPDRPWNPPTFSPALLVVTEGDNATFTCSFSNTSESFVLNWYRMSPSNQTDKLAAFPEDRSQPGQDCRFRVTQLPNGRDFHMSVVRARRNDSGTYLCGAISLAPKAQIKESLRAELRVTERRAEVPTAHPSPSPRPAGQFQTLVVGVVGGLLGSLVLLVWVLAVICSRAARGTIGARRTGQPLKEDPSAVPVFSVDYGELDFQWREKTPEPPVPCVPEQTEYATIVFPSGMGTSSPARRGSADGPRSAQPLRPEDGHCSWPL

SMILES | IC50
Cc1cccc(C[C@@H]2NC(=O)[C@H](CC(=O)O)NC(=O)[C@H](Cc3ccc(OCC(=O)O)cc3)NC(=O)[C@H](CN3CCOCC3)NC(=O)CSC[C@@H](C(=O)N[C@@H](CCN)C(N)=O)NC(=O)[C@H](CCCO)NC(=O)[C@H](C(C)C)NC(=O)[C@H](CC3CCCCC3)NC(=O)[C@H](CCN)NC(=O)[C@@H](CC(C)C)NC(=O)[C@H](C)N(C)C(=O)[C@H](CCC(N)=O)NC(=O)[C@H](Cc3ccc(-c4ccccc4)cc3)NC(=O)[C@H](Cc3cccc(-c4ccc(N)nc4)c3)NC2=O)c1 [Example 5100] ({CH2CO}-[Ala(morpholin-4-yl)]Y(Carboxymethyl)D[Phe(3-Me)][X17][Bip]Q[NMeA][dL][Dab][Cha]V[Nva(5-OH)]C[Dab]-NH2; thioether N-14) | 0.27 µM
CC(=O)Nc1ccc(-c2ccc(C[C@@H]3NC(=O)[C@H](Cc4cccc(C(F)(F)F)c4)NC(=O)[C@H](CC(=O)O)NC(=O)[C@H](Cc4ccc(C(=O)O)cc4)NC(=O)[C@H]([C@@H](C)N)NC(=O)CSC[C@@H](C(=O)N[C@@H](CCN)C(N)=O)NC(=O)[C@H](CCC(=O)O)NC(=O)[C@H](C(C)C)NC(=O)[C@H](CC4CCCCC4)NC(=O)[C@H](CCN)NC(=O)[C@@H](CC(C)C)NC(=O)[C@H](C)N(C)C(=O)[C@H](Cc4ccc(C(=O)O)cc4)NC(=O)[C@H](Cc4ccc(-c5ccccc5)cc4)NC3=O)cc2)cc1 [Example 5160] ({CH2CO}-[Abu(3R-NH2)][Phe(4-COOH)]D[Phe(3-CF3)][Bip(4'-NHAc)][Bip][Phe(4-COOH)][NMeA][dL][Dab][Cha]VEC[Dab]-NH2; thioether N-14) | 0.04 µM
CC(=O)Nc1ccc(-c2ccc(C[C@@H]3NC(=O)[C@H](Cc4cccc(C)c4)NC(=O)[C@H](CC(=O)O)NC(=O)[C@H](Cc4ccc(C(=O)O)cc4)NC(=O)[C@H](CC4CCCCC4)NC(=O)CSC[C@@H](C(=O)N[C@@H](CCN)C(N)=O)NC(=O)[C@H](CCC(=O)O)NC(=O)[C@H](C(C)C)NC(=O)[C@H](CC4CCCCC4)NC(=O)[C@H](CCN)NC(=O)[C@@H](CC(C)C)NC(=O)[C@H](C)N(C)C(=O)[C@H](CCC(N)=O)NC(=O)[C@H](Cc4ccc(-c5ccccc5)cc4)NC3=O)cc2)cc1 [Example 5203] ({CH2CO}-[Cha][Phe(4-COOH)]D[Phe(3-Me)][Bip(4'-NHAc)][Bip]Q[NMeA][dL][Dab][Cha]VEC[Dab]-NH2; thioether N-14) | 0.01 µM
CC(=O)Nc1ccc(-c2ccc(C[C@@H]3NC(=O)[C@H](Cc4cccc(C(F)(F)F)c4)NC(=O)[C@H](CC(=O)O)NC(=O)[C@H](Cc4ccc(C(=O)O)cc4)NC(=O)[C@H](CC(C)C)NC(=O)CSC[C@@H](C(=O)N[C@@H](CCN)C(N)=O)NC(=O)[C@H](CCC(=O)O)NC(=O)[C@H](C(C)C)NC(=O)[C@H](CC4CCCCC4)NC(=O)[C@H](CCN)NC(=O)[C@@H](CC(C)C)NC(=O)[C@H](C)N(C)C(=O)[C@H](CCCN)NC(=O)[C@H](Cc4ccc(-c5ccccc5)cc4)NC3=O)cc2)cc1 [Example 5094] ({CH2CO}-L[Phe(4-COOH)]D[Phe(3-CF3)][Bip(4'-NHAc)][Bip][Orn][NMeA][dL][Dab][Cha]VEC[Dab]-NH2; thioether N-14) | 0.03 µM

Next, values leading:

IC50 | SMILES
0.38 µM | Cc1cccc(C[C@@H]2NC(=O)[C@H](CC(=O)O)NC(=O)[C@H](Cc3ccc(OCC(=O)O)cc3)NC(=O)[C@H](CN3CCOCC3)NC(=O)CSC[C@@H](C(=O)N[C@@H](CCN)C(N)=O)NC(=O)[C@H](CCCN)NC(=O)[C@H](C(C)C)NC(=O)[C@H](CC3CCCCC3)NC(=O)[C@H](CCN)NC(=O)[C@@H](CC(C)C)NC(=O)[C@H](C)N(C)C(=O)[C@H](CCC(N)=O)NC(=O)[C@H](Cc3ccc(-c4ccccc4)cc3)NC(=O)[C@H](Cc3cccc(-c4ccc(N)nc4)c3)NC2=O)c1 [Example 5103] ({CH2CO}-[Ala(morpholin-4-yl)]Y(Carboxymethyl)D[Phe(3-Me)][X17][Bip]Q[NMeA][dL][Dab][Cha]V[Orn]C[Dab]-NH2; thioether N-14)
0.01 µM | CCCC[C@@H]1NC(=O)CSC[C@@H](C(=O)N[C@@H](CCN)C(N)=O)NC(=O)[C@H](CCCN)NC(=O)[C@H](C(C)C)NC(=O)[C@H](CC2CCCCC2)NC(=O)[C@H](CCN)NC(=O)[C@@H](CC(C)C)NC(=O)[C@H](C)N(C)C(=O)[C@H](CCC(N)=O)NC(=O)[C@H](Cc2ccc(-c3ccccc3)cc2)NC(=O)[C@H](Cc2ccc(C(=O)O)cc2)NC(=O)[C@H](Cc2cccc(C)c2)NC(=O)[C@H](CC(=O)O)NC(=O)[C@H](Cc2ccc(OCC(=O)O)cc2)NC1=O [Example 5175] ({CH2CO}-[Nle]Y(Carboxymethyl)D[Phe(3-Me)][Phe(4-COOH)][Bip]Q[NMeA][dL][Dab][Cha]V[Orn]C[Dab]-NH2; thioether N-14)
0.09 µM | Cc1cccc(C[C@@H]2NC(=O)[C@H](CC(=O)O)NC(=O)[C@H](Cc3ccc(C(=O)O)cc3)NC(=O)[C@H](CN3CCOCC3)NC(=O)CSC[C@@H](C(=O)N[C@@H](CCN)C(N)=O)NC(=O)[C@H](CCC(N)=O)NC(=O)[C@H](C(C)C)NC(=O)[C@H](CC3CCCCC3)NC(=O)[C@H](CCN)NC(=O)[C@@H](CC(C)C)NC(=O)[C@H](C)N(C)C(=O)[C@H](Cc3ccc(C(=O)O)cc3)NC(=O)[C@H](Cc3ccc(-c4ccccc4)cc3)NC(=O)[C@H](Cc3ccc(C(=O)O)cc3)NC2=O)c1 [Example 5260] ({CH2CO}-[Ala(morpholin-4-yl)][Phe(4-COOH)]D[Phe(3-Me)][Phe(4-COOH)][Bip][Phe(4-COOH)][NMeA][dL][Dab][Cha]VQC[Dab]-NH2; thioether N-14)
0.04 µM | CC(=O)Nc1ccc(-c2ccc(C[C@@H]3NC(=O)[C@H](Cc4cccc(C(F)(F)F)c4)NC(=O)[C@H](CC(=O)O)NC(=O)[C@H](Cc4ccc(C(=O)O)cc4)NC(=O)[C@H](CN4CCOCC4)NC(=O)CSC[C@@H](C(=O)N[C@@H](CCN)C(N)=O)NC(=O)[C@H](CCC(=O)O)NC(=O)[C@H](C(C)C)NC(=O)[C@H](CC4CCCCC4)NC(=O)[C@H](CCN)NC(=O)[C@@H](CC(C)C)NC(=O)[C@H](C)N(C)C(=O)[C@H](Cc4ccc(C(=O)O)cc4)NC(=O)[C@H](Cc4ccc(-c5ccccc5)cc4)NC3=O)cc2)cc1 [Example 5159] ({CH2CO}-[Ala(morpholin-4-yl)][Phe(4-COOH)]D[Phe(3-CF3)][Bip(4'-NHAc)][Bip][Phe(4-COOH)][NMeA][dL][Dab][Cha]VEC[Dab]-NH2; thioether N-14)

Same assay, conditions: Jurkat-PD-1 cells, Alexa fluor-647 labeled PD-L1-Ig 177 nM; nM; read-out: CBA Method 3

SMILES | IC50
Cc1cccc(C[C@@H]2NC(=O)[C@H](CC(=O)O)NC(=O)[C@H](Cc3ccc(-c4ccc(C(=O)O)cc4)cc3)NC(=O)[C@H](CN3CCOCC3)NC(=O)CSC[C@@H](C(=O)N[C@@H](CCN)C(N)=O)NC(=O)[C@H](CCC(=O)O)NC(=O)[C@H](C(C)C)NC(=O)[C@H](CC(C)C)NC(=O)[C@H](CC(N)=O)NC(=O)[C@@H](CC(C)C)NC(=O)[C@H](C)N(C)C(=O)[C@H](C(C)C)NC(=O)[C@H](Cc3ccc(-c4ccccc4)cc3)NC(=O)[C@H](CC(C)C)NC2=O)c1 [Example 5125] ({CH2CO}-[Ala(morpholin-4-yl)][Bip(4'-COOH)]D[Phe(3-Me)]L[Bip]V[NMeA][dL]NLVEC[Dab]-NH2; thioether N-14) | 0.0094 µM
CC(C)C[C@H]1NC(=O)[C@H](C)N(C)C(=O)[C@H](Cc2ccc(C(=O)O)cc2)NC(=O)[C@H](Cc2ccc(-c3ccccc3)cc2)NC(=O)[C@H](CCc2ccccc2)NC(=O)[C@H](Cc2cccc(C(F)(F)F)c2)NC(=O)[C@H](CC(=O)O)NC(=O)[C@H](Cc2ccc(C(=O)O)cc2)NC(=O)[C@H](CCCCNC(=N)N)NC(=O)CSC[C@@H](C(=O)N[C@@H](CCN)C(N)=O)NC(=O)[C@H](CO)NC(=O)[C@H](C(C)(C)O)NC(=O)[C@H](CC2CCCCC2)NC(=O)[C@H](CCN)NC1=O [Example 5252] ({CH2CO}-[hArg][Phe(4-COOH)]D[Phe(3-CF3)][hPhe][Bip][Phe(4-COOH)][NMeA][dL][Dab][Cha][Val(3-OH)]SC[Dab]-NH2; thioether N-14) | 0.0012 µM

The next lines start with the values.

IC50 | SMILES
0.0059 µM | Cc1cccc(C[C@@H]2NC(=O)[C@H](CC(=O)O)NC(=O)[C@H](Cc3ccc(OCC(=O)O)cc3)NC(=O)[C@H](CCC(=O)O)NC(=O)CSC[C@@H](C(=O)N[C@@H](CCN)C(N)=O)NC(=O)[C@H](CCCN)NC(=O)[C@H](C(C)C)NC(=O)[C@H](CC3CCCCC3)NC(=O)[C@H](CCN)NC(=O)[C@@H](CC(C)C)NC(=O)[C@H](C)N(C)C(=O)[C@H](CCC(N)=O)NC(=O)[C@H](Cc3ccc(-c4ccccc4)cc3)NC(=O)[C@H](Cc3ccc(C(=O)O)cc3)NC2=O)c1 [Example 5170] ({CH2CO}-EY(Carboxymethyl)D[Phe(3-Me)][Phe(4-COOH)][Bip]Q[NMeA][dL][Dab][Cha]V[Orn]C[Dab]-NH2; thioether N-14)
0.0014 µM | CC(C)C[C@H]1NC(=O)[C@H](C)N(C)C(=O)[C@H](Cc2ccc(OCC(=O)O)cc2)NC(=O)[C@H](Cc2ccc(-c3ccccc3)cc2)NC(=O)[C@H](Cn2cc(C3CC3)nn2)NC(=O)[C@H](Cc2cccc(C(F)(F)F)c2)NC(=O)[C@H](CC(=O)O)NC(=O)[C@H](Cc2ccc(C(=O)O)cc2)NC(=O)[C@H](CN2CCOCC2)NC(=O)CSC[C@@H](C(=O)N[C@@H](CCN)C(N)=O)NC(=O)[C@H](CCC(N)=O)NC(=O)[C@H](C(C)C)NC(=O)[C@H](CC2CCCCC2)NC(=O)[C@H](CCN)NC1=O [Example 5250]
0.0002 µM | Cc1cccc(C[C@@H]2NC(=O)[C@H](CC(=O)O)NC(=O)[C@H](Cc3ccc(OCC(=O)O)cc3)NC(=O)[C@H](Cc3ccccc3Cl)NC(=O)CSC[C@@H](C(=O)N[C@@H](CCN)C(N)=O)NC(=O)[C@H](CCCN)NC(=O)[C@H](C(C)C)NC(=O)[C@H](CC3CCCCC3)NC(=O)[C@H](CCN)NC(=O)[C@@H](CC(C)C)NC(=O)[C@H](C)N(C)C(=O)[C@H](CCC(N)=O)NC(=O)[C@H](Cc3ccc(-c4ccccc4)cc3)NC(=O)[C@H](Cc3ccc(C(=O)O)cc3)NC2=O)c1 [Example 5291] ({CH2CO}-[Phe(2-Cl)]Y(Carboxymethyl)D[Phe(3-Me)][Phe(4-COOH)][Bip]Q[NMeA][dL][Dab][Cha]V[Orn]C[Dab]-NH2; thioether N-14)
